Earlier results, collected in patent EP2033945A1, “Quaternary ammonium salts” (Infineum International Limited, priority 2007, dated 2009).

Conditions: first dissociation constant where the acid is polybasic; from CRC Handbook of Chemistry and Physics, 68th edition, page D161

In the case of `O=C(O)c1c(O)cc(O)cc1O` [2,4,6-trihydroxybenzoic acid], the pKa is listed as 1.7.

For `O=C(O)c1ccccc1C(=O)O` [phthalic acid], the pKa is listed as 2.9.
